Assay results as given in PubChem BioAssay (NCI).
“And” between values parts separate entries of the source, which are not always exact repeats. Identical values can stand only once.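 Compound exposure: 48 hours, 5 concentrations, 96-well plates. Abbreviation: GI50, concentration required for 50% inhibition of growth. The concentration for full growth arrest is given as TGI.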

Assays:
Experiment in all cases: NCI anticancer screen, dose series, 48 h
COLO 205 colon = system: COLO 205 colon
HCT-116 colon = system: HCT-116 colon
HOP-62 NSCLC = system: HOP-62 NSCLC
K-562 leukemia = system: K-562 leukemia
NCI-H23 lung = system: NCI-H23 lung
OVCAR-3 ovarian = system: OVCAR-3 ovarian
PC-3 prostate = system: PC-3 prostate
SK-MEL-5 melanoma = system: SK-MEL-5 melanoma
T-47D breast = system: T-47D breast
HL-60(TB) leukemia = system: HL-60(TB) leukemia

| Compound | GI50 (COLO 205 colon) | TGI (COLO 205 colon) | GI50 (HCT-116 colon) | TGI (HCT-116 colon) | GI50 (HOP-62 NSCLC) | TGI (HOP-62 NSCLC) | GI50 (K-562 leukemia) | TGI (K-562 leukemia) | GI50 (NCI-H23 lung) | TGI (NCI-H23 lung) | GI50 (OVCAR-3 ovarian) | TGI (OVCAR-3 ovarian) | GI50 (PC-3 prostate) | TGI (PC-3 prostate) | GI50 (SK-MEL-5 melanoma) | TGI (SK-MEL-5 melanoma) | GI50 (T-47D breast) | TGI (T-47D breast) | TGI (HL-60(TB) leukemia) | GI50 (HL-60(TB) leukemia) |
| --- | --- | --- | --- | --- | --- | --- | --- | --- | --- | --- | --- | --- | --- | --- | --- | --- | --- | --- | --- | --- |
| Oc1c(CN2CCC(N3CCCCC3)CC2)cc(Cc2cc(CN3CCC(N4CCCCC4)CC3)c(O)c3ncccc23)c2cccnc12 | 0.372 µM | 1.94 µM | 0.725 µM | 7.17 µM | 0.425 µM | 4.93 µM | 0.617 µM | 8.81 µM | 2.28 µM | 14 µM | 0.517 µM | 10.1 µM | 1.28 µM | 15.9 µM | 1.15 µM | 2.59 µM | 0.51 µM | 4.8 µM |  |  |
| COc1cc([N+](=O)[O-])cc2c3c(n(C)c12)[C@@]1(C)CCC2c4ccc(OCc5ccccc5)cc4CCC2C1C3 (some centres not stated) | 29.3 µM | > 100 µM | 78.5 µM | > 100 µM | 43.7 µM | > 100 µM | 62.5 µM | > 100 µM | 68.8 µM | > 100 µM | > 100 µM | > 100 µM | > 100 µM | > 100 µM | 78.9 µM | > 100 µM | 43.1 µM | > 100 µM |  |  |
| O=C(c1ccccc1)c1nnc(C(=O)c2ccccc2)nn1 |  | > 344 µM |  | > 344 µM |  | > 344 µM |  | > 344 µM |  | > 344 µM |  | > 344 µM |  |  |  | > 344 µM |  |  | > 344 µM |  |
| C/C(CC(=O)Nc1cc(Cl)c(Cl)cc1Cl)=N\NC(N)=O |  | > 100 µM |  | > 100 µM |  | > 100 µM |  | > 100 µM |  | > 100 µM |  | > 100 µM |  |  |  | > 100 µM |  |  | > 100 µM |  |
| N#Cc1cc([N+](=O)[O-])ccc1NC(=O)C(=O)Nc1n[nH]c(N)n1 |  | > 100 µM |  | > 100 µM |  | > 100 µM |  | > 100 µM |  | > 100 µM |  | > 100 µM |  |  |  | > 100 µM |  |  | > 100 µM |  |
| O=C1CCCCN1CCCCC#Cc1ccccc1C#Cc1ccc([N+](=O)[O-])cc1 | 2.75 µM | 7.17 µM | 4.18 µM | 13.5 µM | 8.01 µM | 22.5 µM | 3.6 µM | 22.3 µM | 4.23 µM | 17.1 µM | 10.9 µM | 23.6 µM |  |  | 1.75 µM | 3.88 µM | 3.52 µM | 18.7 µM | 6.64 µM | 1.75 µM |
| CC(C)(C)C1C=C(Sc2ccccc2)C(=O)O1 (configuration not stated) |  | 54.4 µM |  | > 100 µM |  | > 100 µM |  | > 100 µM |  | > 100 µM |  | > 100 µM |  |  |  |  |  |  | 55.7 µM |  |
| O=C(/N=N/C(=O)OCc1ccccc1)OCc1ccccc1 |  | > 100 µM |  | > 100 µM |  | > 100 µM |  | > 100 µM |  | > 100 µM |  | > 100 µM |  |  |  | > 100 µM |  |  | > 100 µM |  |
| O=C1CCC(=O)N2CCCCN12 |  | > 100 µM |  | > 100 µM |  | > 100 µM |  | > 100 µM |  | > 100 µM |  | > 100 µM |  |  |  | > 100 µM |  |  | > 100 µM |  |
| Cc1cc2c(cc1C)[n+](=O)c(C(=O)C/C(=N/NC(=O)CC#N)C(=O)Nc1ccccc1C(F)(F)F)c(C)n2[O-] |  | > 100 µM |  | > 100 µM |  | > 100 µM |  | > 100 µM |  | > 100 µM |  | > 100 µM |  |  |  |  |  |  | 86 µM |  |
| CC[C@@]1(O)C(=O)OCc2c1cc1n(c2=O)Cc2c-1nc1cc3c(cc1c2CCl)OCO3 | 1.15 µM | 3.4 µM | < 0.01 µM | 0.294 µM | < 0.01 µM | < 0.0479 µM |  |  | < 0.01 µM | < 0.0153 µM | 0.333 µM | 3.07 µM | 0.0392 µM | > 36.4 µM | < 0.01 µM | 1.13 µM | < 0.01 µM | > 71.9 µM |  | < 0.01 µM |
| CCc1ccc(/C=C\c2cc(OC)c(OC)c(OC)c2)cc1 | 0.0212 µM | 0.134 µM and 0.0499 µM | 0.0187 µM | 0.464 µM and 1.18 µM | 0.0295 µM | 18.3 µM |  |  | 0.039 µM | 0.338 µM and 0.114 µM |  | 0.206 µM |  |  |  | 0.464 µM |  |  |  | 0.0172 µM |
| C[C@@H]1OC(O)[C@@H](F)[C@H](O)[C@@H]1O (some centres not stated) | > 100 µM | > 100 µM | > 100 µM | > 100 µM | > 100 µM | > 100 µM |  |  | > 100 µM | > 100 µM | > 100 µM | > 100 µM | > 100 µM | > 100 µM | > 100 µM | > 100 µM | > 100 µM | > 100 µM | > 100 µM | > 100 µM |
| O=C1O[C@@H](c2ccc3c(c2)OCO3)C2C(=O)O[C@@H](c3ccc4c(c3)OCO4)C12 (some centres not stated) |  | > 100 µM |  | > 100 µM |  | > 100 µM |  | > 100 µM |  | > 100 µM |  | > 100 µM |  |  |  | > 100 µM |  |  | > 100 µM |  |
| C/C(CC(=O)Nc1ccc(C)cc1C)=N/N=C(N)N |  | > 100 µM |  | > 100 µM |  | > 100 µM |  | > 100 µM |  | > 100 µM |  | > 100 µM |  |  |  | > 100 µM |  |  | > 100 µM |  |
| O=C1C2c3[nH]c4ccccc4c3C3CCCCCCC3C2C(=O)N1c1ccccc1 (configuration not stated) |  | 28.6 µM |  |  |  |  |  | 24.9 µM |  | 70.2 µM |  | 17.2 µM |  |  |  | > 100 µM |  |  |  |  |
| C=CCCCCCCCCC(=O)[O][Sn]([CH2]CCC)([CH2]CCC)[CH2]CCC | 0.172 µM | 0.371 µM | 0.133 µM | 0.262 µM | 0.172 µM | 0.346 µM | 0.181 µM | 0.457 µM | 0.115 µM | 0.254 µM | 0.147 µM | 0.285 µM | 0.187 µM | 0.409 µM | 0.148 µM | 0.282 µM |  |  | 0.464 µM | 0.169 µM |
| CCC[CH2][Sn]1([CH2]CCC)[O]Cc2nc(C)ccc2[O]1 | 4.38 µM | 15.9 µM | 12.1 µM | 24.5 µM | 10.1 µM | 22.5 µM | 3.17 µM | 10.5 µM | 1.84 µM | 4.79 µM | 5.05 µM | 17 µM |  |  | 13 µM | 25.9 µM |  |  | 4.64 µM | 1.58 µM |
| COc1ccc(C2=CC3CCC2C3)cc1 (configuration not stated) |  | > 100 µM |  | > 100 µM |  | > 100 µM |  | > 100 µM |  | > 100 µM |  | > 100 µM |  |  |  | > 100 µM |  |  | > 100 µM |  |
